Measured values as given in the supplement of paper PMC10307832.

Experiments:
Assay in all cases: relative viability (nuclei count vs DMSO), 5 days (fraction); higher = more cells survive
R406 + Pemetrexed = compound: COc1cc(Nc2ncc(F)c(Nc3ccc4c(n3)NC(=O)C(C)(C)O4)n2)cc(OC)c1OC [R406] + Nc1nc2[nH]cc(CCc3ccc(C(=O)N[C@@H](CCC(=O)O)C(=O)O)cc3)c2c(=O)[nH]1 [Pemetrexed] (partner 0.2 µM)
In short: (§1)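 Relative viability was taken as the ratio of nuclei in treated wells to nuclei in vehicle wells. Lung cancer cell lines in 1536-well plates received compounds by pin tool one day after seeding, either one drug alone or a fixed anchor-drug dose plus five library-drug doses (not always all listed) in √10 steps. Nuclei were counted on 4× images after 5 days of treatment, and values are medians of duplicate plates.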

Daporinad + OSI-027 = compound: O=C(/C=C/c1cccnc1)NCCCCC1CCN(C(=O)c2ccccc2)CC1 [Daporinad] + COc1cccc2cc(-c3nc([C@H]4CC[C@H](C(=O)O)CC4)n4ncnc(N)c34)[nH]c12 [OSI-027] (partner 0.5 µM)
In short: as §1

Daporinad + Decitabine = compound: O=C(/C=C/c1cccnc1)NCCCCC1CCN(C(=O)c2ccccc2)CC1 [Daporinad] + Nc1ncn([C@H]2C[C@H](O)[C@@H](CO)O2)c(=O)n1 [Decitabine] (partner 2 µM)
In short: as §1

Daporinad + Olaparib = compound: O=C(/C=C/c1cccnc1)NCCCCC1CCN(C(=O)c2ccccc2)CC1 [Daporinad] + O=C(c1cc(Cc2n[nH]c(=O)c3ccccc23)ccc1F)N1CCN(C(=O)C2CC2)CC1 [Olaparib] (partner 8 µM)
In short: as §1

For COR-L 105, the relative viability (R406 + Pemetrexed; first compound 0.08 µM) was 1.29, the relative viability (R406 + Pemetrexed; first compound 0.253 µM) was 1.22 and the relative viability (R406 + Pemetrexed; first compound 0.8 µM) was 1.12. It also gave a relative viability (R406 + Pemetrexed; first compound 2.53 µM) of 1.24, a relative viability (R406 + Pemetrexed; first compound 8 µM) of 0.841 and a relative viability (Daporinad + OSI-027; first compound 0.0005 µM) of 0.671. The relative viability (Daporinad + OSI-027; first compound 0.001581 µM) was 0.748, the relative viability (Daporinad + OSI-027; first compound 0.005 µM) was 0.883 and the relative viability (Daporinad + OSI-027; first compound 0.01581 µM) was 0.694. For the same cell line, the relative viability (Daporinad + Decitabine; first compound 0.0005 µM) was 0.692, the relative viability (Daporinad + Decitabine; first compound 0.001581 µM) was 0.601 and the relative viability (Daporinad + Decitabine; first compound 0.005 µM) was 0.612. The relative viability (Daporinad + Decitabine; first compound 0.01581 µM) was 0.6, the relative viability (Daporinad + Olaparib; first compound 0.0005 µM) was 0.637 and the relative viability (Daporinad + Olaparib; first compound 0.001581 µM) was 0.66. The relative viability (Daporinad + Olaparib; first compound 0.005 µM) was 0.61 and the relative viability (Daporinad + Olaparib; first compound 0.01581 µM) was 0.591.
NCI-H1975 was tested, and the relative viability (R406 + Pemetrexed; first compound 0.08 µM) was 0.29, the relative viability (R406 + Pemetrexed; first compound 0.253 µM) was 0.322 and the relative viability (R406 + Pemetrexed; first compound 0.8 µM) was 0.272. For the same cell line, the relative viability (R406 + Pemetrexed; first compound 2.53 µM) was 0.261, the relative viability (R406 + Pemetrexed; first compound 8 µM) was 0.175 and the relative viability (Daporinad + OSI-027; first compound 0.0005 µM) was 0.753. For the same cell line, the relative viability (Daporinad + OSI-027; first compound 0.001581 µM) was 0.738, the relative viability (Daporinad + OSI-027; first compound 0.005 µM) was 0.8 and the relative viability (Daporinad + OSI-027; first compound 0.01581 µM) was 0.672. For the same cell line, the relative viability (Daporinad + Decitabine; first compound 0.0005 µM) was 0.444, the relative viability (Daporinad + Decitabine; first compound 0.001581 µM) was 0.338 and the relative viability (Daporinad + Decitabine; first compound 0.005 µM) was 0.382. It also gave a relative viability (Daporinad + Decitabine; first compound 0.01581 µM) of 0.373, a relative viability (Daporinad + Olaparib; first compound 0.0005 µM) of 0.818 and a relative viability (Daporinad + Olaparib; first compound 0.001581 µM) of 0.764. The relative viability (Daporinad + Olaparib; first compound 0.005 µM) was 0.728 and the relative viability (Daporinad + Olaparib; first compound 0.01581 µM) was 0.611.
In the case of NCI-H1993, the relative viability (R406 + Pemetrexed; first compound 0.08 µM) is reported as 0.618, the relative viability (R406 + Pemetrexed; first compound 0.253 µM) is reported as 0.5 and the relative viability (R406 + Pemetrexed; first compound 0.8 µM) is reported as 0.678. The relative viability (R406 + Pemetrexed; first compound 2.53 µM) was 0.578, the relative viability (R406 + Pemetrexed; first compound 8 µM) was 0.464 and the relative viability (Daporinad + OSI-027; first compound 0.0005 µM) was 0.618. It also gave a relative viability (Daporinad + OSI-027; first compound 0.001581 µM) of 0.508, a relative viability (Daporinad + OSI-027; first compound 0.005 µM) of 0.55 and a relative viability (Daporinad + OSI-027; first compound 0.01581 µM) of 0.542. The relative viability (Daporinad + Decitabine; first compound 0.0005 µM) was 0.576, the relative viability (Daporinad + Decitabine; first compound 0.001581 µM) was 0.629 and the relative viability (Daporinad + Decitabine; first compound 0.005 µM) was 0.602. For the same cell line, the relative viability (Daporinad + Decitabine; first compound 0.01581 µM) was 0.639, the relative viability (Daporinad + Olaparib; first compound 0.0005 µM) was 0.899 and the relative viability (Daporinad + Olaparib; first compound 0.001581 µM) was 1.02. For the same cell line, the relative viability (Daporinad + Olaparib; first compound 0.005 µM) was 0.948 and the relative viability (Daporinad + Olaparib; first compound 0.01581 µM) was 1.05.
SK-LU-1 showed a relative viability (R406 + Pemetrexed; first compound 0.08 µM) of 0.952, a relative viability (R406 + Pemetrexed; first compound 0.253 µM) of 1.06 and a relative viability (R406 + Pemetrexed; first compound 0.8 µM) of 1.1. The relative viability (R406 + Pemetrexed; first compound 2.53 µM) was 0.528, the relative viability (R406 + Pemetrexed; first compound 8 µM) was 0.187 and the relative viability (Daporinad + OSI-027; first compound 0.0005 µM) was 0.358. It also gave a relative viability (Daporinad + OSI-027; first compound 0.001581 µM) of 0.335, a relative viability (Daporinad + OSI-027; first compound 0.005 µM) of 0.454 and a relative viability (Daporinad + OSI-027; first compound 0.01581 µM) of 0.348. It also gave a relative viability (Daporinad + Decitabine; first compound 0.0005 µM) of 0.656, a relative viability (Daporinad + Decitabine; first compound 0.001581 µM) of 0.683 and a relative viability (Daporinad + Decitabine; first compound 0.005 µM) of 0.671. For the same cell line, the relative viability (Daporinad + Decitabine; first compound 0.01581 µM) was 0.692, the relative viability (Daporinad + Olaparib; first compound 0.0005 µM) was 0.426 and the relative viability (Daporinad + Olaparib; first compound 0.001581 µM) was 0.548. For the same cell line, the relative viability (Daporinad + Olaparib; first compound 0.005 µM) was 0.394 and the relative viability (Daporinad + Olaparib; first compound 0.01581 µM) was 0.299.
NCI-H23 was tested, and the relative viability (R406 + Pemetrexed; first compound 0.08 µM) was 0.565, the relative viability (R406 + Pemetrexed; first compound 0.253 µM) was 0.806 and the relative viability (R406 + Pemetrexed; first compound 0.8 µM) was 0.782. It also gave a relative viability (R406 + Pemetrexed; first compound 2.53 µM) of 0.17, a relative viability (R406 + Pemetrexed; first compound 8 µM) of 0.248 and a relative viability (Daporinad + OSI-027; first compound 0.0005 µM) of 0.544. The relative viability (Daporinad + OSI-027; first compound 0.001581 µM) was 0.472, the relative viability (Daporinad + OSI-027; first compound 0.005 µM) was 0.637 and the relative viability (Daporinad + OSI-027; first compound 0.01581 µM) was 0.545. It also gave a relative viability (Daporinad + Decitabine; first compound 0.0005 µM) of 0.319, a relative viability (Daporinad + Decitabine; first compound 0.001581 µM) of 0.306 and a relative viability (Daporinad + Decitabine; first compound 0.005 µM) of 0.272. For the same cell line, the relative viability (Daporinad + Decitabine; first compound 0.01581 µM) was 0.23, the relative viability (Daporinad + Olaparib; first compound 0.0005 µM) was 0.221 and the relative viability (Daporinad + Olaparib; first compound 0.001581 µM) was 0.245. For the same cell line, the relative viability (Daporinad + Olaparib; first compound 0.005 µM) was 0.238 and the relative viability (Daporinad + Olaparib; first compound 0.01581 µM) was 0.172.
With HCC-366 the relative viability (R406 + Pemetrexed; first compound 0.08 µM) was 0.161, the relative viability (R406 + Pemetrexed; first compound 0.253 µM) was 0.17 and the relative viability (R406 + Pemetrexed; first compound 0.8 µM) was 0.172. The relative viability (R406 + Pemetrexed; first compound 2.53 µM) was 0.164, the relative viability (R406 + Pemetrexed; first compound 8 µM) was 0.132 and the relative viability (Daporinad + OSI-027; first compound 0.0005 µM) was 0.961. The relative viability (Daporinad + OSI-027; first compound 0.001581 µM) was 0.907, the relative viability (Daporinad + OSI-027; first compound 0.005 µM) was 1.22 and the relative viability (Daporinad + OSI-027; first compound 0.01581 µM) was 1.03. It also gave a relative viability (Daporinad + Decitabine; first compound 0.0005 µM) of 0.413, a relative viability (Daporinad + Decitabine; first compound 0.005 µM) of 0.368 and a relative viability (Daporinad + Decitabine; first compound 0.01581 µM) of 0.321. It also gave a relative viability (Daporinad + Olaparib; first compound 0.0005 µM) of 0.334, a relative viability (Daporinad + Olaparib; first compound 0.005 µM) of 0.189 and a relative viability (Daporinad + Olaparib; first compound 0.01581 µM) of 0.095.
EMC-BAC-2 gave a relative viability (R406 + Pemetrexed; first compound 0.08 µM) of 0.421, a relative viability (R406 + Pemetrexed; first compound 0.253 µM) of 0.457 and a relative viability (R406 + Pemetrexed; first compound 0.8 µM) of 0.427. For the same cell line, the relative viability (R406 + Pemetrexed; first compound 2.53 µM) was 0.499, the relative viability (R406 + Pemetrexed; first compound 8 µM) was 0.229 and the relative viability (Daporinad + OSI-027; first compound 0.0005 µM) was 0.393. It also gave a relative viability (Daporinad + OSI-027; first compound 0.001581 µM) of 0.435, a relative viability (Daporinad + OSI-027; first compound 0.005 µM) of 0.326 and a relative viability (Daporinad + OSI-027; first compound 0.01581 µM) of 0.202. It also gave a relative viability (Daporinad + Decitabine; first compound 0.0005 µM) of 0.993, a relative viability (Daporinad + Decitabine; first compound 0.001581 µM) of 1.05 and a relative viability (Daporinad + Decitabine; first compound 0.005 µM) of 0.666. It also gave a relative viability (Daporinad + Decitabine; first compound 0.01581 µM) of 0.464, a relative viability (Daporinad + Olaparib; first compound 0.0005 µM) of 0.387 and a relative viability (Daporinad + Olaparib; first compound 0.001581 µM) of 0.342. It also gave a relative viability (Daporinad + Olaparib; first compound 0.005 µM) of 0.316 and a relative viability (Daporinad + Olaparib; first compound 0.01581 µM) of 0.235.
NCI-H2405 was tested, and the relative viability (R406 + Pemetrexed; first compound 0.08 µM) was 1.14, the relative viability (R406 + Pemetrexed; first compound 0.253 µM) was 1.22 and the relative viability (R406 + Pemetrexed; first compound 0.8 µM) was 1.08. For the same cell line, the relative viability (R406 + Pemetrexed; first compound 2.53 µM) was 0.495, the relative viability (R406 + Pemetrexed; first compound 8 µM) was 0.224 and the relative viability (Daporinad + OSI-027; first compound 0.0005 µM) was 0.698. It also gave a relative viability (Daporinad + OSI-027; first compound 0.001581 µM) of 0.645, a relative viability (Daporinad + OSI-027; first compound 0.005 µM) of 0.724 and a relative viability (Daporinad + OSI-027; first compound 0.01581 µM) of 0.626. It also gave a relative viability (Daporinad + Decitabine; first compound 0.0005 µM) of 0.796, a relative viability (Daporinad + Decitabine; first compound 0.001581 µM) of 0.807 and a relative viability (Daporinad + Decitabine; first compound 0.005 µM) of 0.751. It also gave a relative viability (Daporinad + Decitabine; first compound 0.01581 µM) of 0.379, a relative viability (Daporinad + Olaparib; first compound 0.0005 µM) of 0.848 and a relative viability (Daporinad + Olaparib; first compound 0.001581 µM) of 0.841. The relative viability (Daporinad + Olaparib; first compound 0.005 µM) was 0.639 and the relative viability (Daporinad + Olaparib; first compound 0.01581 µM) was 0.407.
